Experimental data as given in patent publication US20240299433A1, “PHARMACEUTICAL COMPOSITION CONTAINING AUCUBIN FOR PREVENTING OR TREATING MACULAR DEGENERATION” (INDUSTRIAL COOPERATION FOUNDATION JEONBUK NATIONAL …, priority 2019, published 2024).

What was measured:
[1] = tested on: N-methyl-N-nitrosourea (MNU)-induced photoreceptor cell degeneration mouse; assay: Histopathology (H&E), outer nuclear layer thickness of retinal tissue; type: in vivo, C57BL/6 mice; details: aucubin 15 mg/kg/day orally for 7 days; MNU 60 mg/kg intraperitoneally
Procedure: (§1) Six-week-old male C57BL/6 mice were purchased from Orient (Seongnam, Korea) and used after acclimatization for 1 week. N-methyl-N-nitrosourea (MNU, Sigma, USA) was prepared to a concentration of 1% in 0.05% acetic acid solution to induce damage and degeneration of photoreceptor cells among the morphologic changes in retinal tissue seen in macular degeneration, and 7-week-old male C57BL/6 mice were administered 1% MNU solution intraperitoneally at 60 mg/kg per animal. In the normal group, only an equivalent amount of 0.05% acetic acid was administered intraperitoneally. […] The inventors measured the electroretinogram. […] After the pupils were dilated, an appropriate amount of 1% methylcellulose was applied to the eyes while maintaining body temperature, and a gold wire loop recording electrode was grounded to the cornea, a reference electrode was placed on the cheek area, and a ground electrode was grounded to the tail, and the ERG was measured using a Retiport (Roland consult, Germany). […]
After the end of study drug (aucubin) administration, necropsy was performed and the eyes were enucleated, fixed in 10% neutralized formalin for 1 day, and embedded in paraffin to prepare slide sections. […] Photoreceptor cell damage & deformation was assessed by measuring the change in thickness of the outer nuclear layer (ONL) of retinal tissue. […]

[2] = tested on: N-methyl-N-nitrosourea (MNU)-induced photoreceptor cell degeneration mouse; assay: TUNEL staining of retinal sections (anti-apoptotic effect); type: in vivo, C57BL/6 mice; details: aucubin 15 mg/kg/day orally for 7 days; versus MNU-treated group
Procedure: as §1, with “intraperitoneally. Aucubin was prepared by dissolving in sterile tertiary distilled water to a concentration of 15 mg/kg/day and administered orally once daily for 7 days starting on the same day as MNU administration.” for “intraperitoneally.”
Retinal sections were made 4 μm thick. […] In the MNU-treated group, a number of apoptotic cells were observed, but these were mainly detected in the outer nuclear layer.

[3] = tested on: N-methyl-N-nitrosourea (MNU)-induced photoreceptor cell degeneration mouse; assay: 8-OHdG immunohistochemical staining of retinal sections (antioxidant effect); type: in vivo, C57BL/6 mice; details: aucubin 15 mg/kg/day orally for 7 days; compared to the MNU-treated group
Procedure: as §1
The formation of 8-hydroxydeoxyguanosine (8-OHdG) induced by the oxidation of guanine is a well-known marker for oxidative DNA damage. […] The Invision kit (DAKO, Carpinteria, CA, USA) detected signals visualized with aminoethylcarbazole. […]

[4] = tested on: primary cultured retinal cells; assay: Oxidative stress (DCFH fluorescent probe) in primary cultured retinal cells; type: cell-based, C57BL/6 mice; details: aucubin in presence of MNU 100 μg/mL, 24 hours
[5] = tested on: primary cultured retinal cells; assay: Apoptosis (TUNEL staining) in primary cultured retinal cells; type: cell-based, C57BL/6 mice; details: aucubin in presence of MNU 100 μg/mL, 24 hours
Procedure: Cells were resuspended in the above medium without DNase. […] MNU treatment was cytotoxic in retinal cells. […] Apoptotic cells were measured by TUNEL staining.

[6] = tested on: primary cultured retinal cells; assay: Cell viability (MTS assay) of primary cultured retinal cells; details: 24 hours
Procedure: Retinas were isolated by eye enucleation from C57BL/6 mice (Orient Bio, Seoul, Korea) and dissociated with papain for 15 minutes at 37° C. Neuronal basal medium (Gibco) containing ovomucoid (Sigma Aldrich) and DNase (Sigma Aldrich) was added, and cells were centrifuged at 100×g for 8 min. Cells were resuspended in the above medium without DNase. Retinal cells were maintained in neurobasal medium with L-glutamine and B27 supplement (Gibco). Retinal cells were identified by immunostaining for rhodopsin (a marker for membrane photoreceptor cells) and glial fibrillary acidic protein (Muller glia). The cultured cells contained 65% rod photoreceptor cells and 28% Muller glia. Retinal cells were plated (1*10^4 cells/well) in 96-well plates for 24 hours, and the medium was exchanged with different concentrations of aucubin in the presence or absence of MNU (100 μg/mL) and cultured for 24 hours. Cell viability was then examined using a cell proliferation assay reagent (MTS assay kit, Promega Corporation, Madison, WI, USA).

[7] = tested on: N-methyl-N-nitrosourea (MNU)-induced photoreceptor cell degeneration mouse; assay: Electroretinogram (ERG) in MNU-induced photoreceptor cell degeneration mouse; type: in vivo, C57BL/6 mice; details: MNU 60 mg/kg intraperitoneally, mice
Procedure: Six-week-old male C57BL/6 mice were purchased from Orient (Seongnam, Korea) and used after acclimatization for 1 week. N-methyl-N-nitrosourea (MNU, Sigma, USA) was prepared to a concentration of 1% in 0.05% acetic acid solution to induce damage and degeneration of photoreceptor cells among the morphologic changes in retinal tissue seen in macular degeneration, and 7-week-old male C57BL/6 mice were administered 1% MNU solution intraperitoneally at 60 mg/kg per animal. In the normal group, only an equivalent amount of 0.05% acetic acid was administered intraperitoneally. Aucubin was prepared by dissolving in sterile tertiary distilled water to a concentration of 15 mg/kg/day and administered orally once daily for 7 days starting on the same day as MNU administration. An electroretinogram (ERG) is a record of the electrical signals generated by the […] in response to light and is used as an indicator of retinal damage or disease. The inventors measured the electroretinogram. […] After the pupils were dilated, an appropriate amount of 1% methylcellulose was applied to the eyes while maintaining body temperature, and a gold wire loop recording electrode was grounded to the cornea, a reference electrode was placed on the cheek area, and a ground electrode was grounded to the tail, and the ERG was measured using a Retiport (Roland consult, Germany). […]

OCC1=C[C@@H](O)[C@@H]2C=CO[C@@H](O[C@@H]3O[C@H](CO)[C@@H](O)[C@H](O)[C@H]3O)[C@H]12 [aucubin]
reduction of photoreceptor cell loss (ONL thickness) [1]: 9.8%+2.9%
photoreceptor cell death (TUNEL-positive apoptotic cells) in retina [2]: significantly prevented this cell death
8-OHdG levels (oxidative DNA damage) in retina [3]: significantly reduced
oxidative stress (DCFH dye) [4]: significantly decreased
apoptotic cells (TUNEL staining) [5]: significantly decreased
cell viability in presence of MNU ([6]; various concentrations of aucubin, MNU 100 μg/mL): cell viability was restored in a dose-dependent manner

CN(N=O)C(N)=O [MNU, N-methyl-N-nitrosourea]
reduction of a-wave amplitude [7]: 78%
reduction of b-wave amplitude [7]: 63%
cell viability compared to control cells ([6]; 100 μg/ml MNU alone): approximately 70%
